This is an account of results in patent US12252423B2, “Biodegradation of fluorochemicals” (The Trustees of Princeton University, priority 2018, dated 2025).

The series has as its system pure and enrichment cultures. In words: Toxicity experiments: effect of PFAS on biomass over a 14-day incubation. The class given is cell-based, Acidimicrobiaceae sp. A6 / Terrimonas sp. A8. The conditions noted are these: for toxicity / effects on the overall bacterial numbers: 1 ppb, 10 ppb, 100 ppb and 1 ppm, 14 days incubation, pure and enrichment cultures; for biomass growth: 1 ppm, pure culture incubations, 14 days. The procedure:
Toxicity experiments were conducted for both pure and enrichment cultures with selected PFAS Compounds. The concentrations to test were 1 ppb, 10 ppb, 100 ppb and 1 ppm. During 14 days incubation, no toxicity of Heptafluorobutyric acid (HFBA), Perfluorooctanoic acid (PFOA) was evidenced by cultures with these concentrations.
All Incubations were conducted in 20-ml serum vials with a pure strain A6 (Acidimicrobiaceae sp.)/A8 (Terrimonas sp.) or an enrichment culture, which contained 40.1-48.5% of Acidimicrobiaceae sp. A6, and in the anoxic inorganic Fe(III)-NH4^+ enrichment medium. The composition of the inorganic Fe(III)-NH4^+ enrichment medium (pH 4.5-5.0) consisted of 504 mg/L 2-line ferrihydrite [Fe2O3·0.5H2O], 177 mg/l NH4Cl, 77.9 mg/L (NH4)2SO4, 19.8 mg/L NaHCO3, 71.0 mg/L KHCO3, 9.00 mg/L KH2PO4, 100 mg/L MgSO4·7H2O, and 60.0 mg/L CaCl2·2H2O, in addition to 1 ml/L of a trace element solution, and 1 ml/L of a vitamin solution (ATCC® MD-VS™). An electron shuttling compound, 9,10-Anthraquinone-2,7-disulphonic acid (AQDS), was added to the pure strain A6 with a final concentration as 0.05 mg/L. To achieve strictly anoxic conditions, the headspace of each incubation vial was vacuumed until no bubble formation was observed and then flushed with a N2/CO2 (80:20) gas mixture, which was repeated 3 times. Then, for the PFAS degradation experiment, an equal volume of either HFBA, PFOA and PFBS was added to each group of vials, to yield final concentrations to 100 ppb. In the control group, autoclave control, without PFASs and without addition of NH4^+ were prepared. All These vials were placed on a shaker (100 rpm) in an anaerobic glove box for 14-day incubations at ambient temperature. Duplicate samples were collected destructively every week for Fe(II), NH4^+, and HFBA/PFOA/PFBS analyses.
Toxicity experiments, in terms of how each of these PFAS affects the biomass over a 14-day incubation, were conducted for both pure and enrichment cultures. The concentrations tested were 1 ppb, 10 ppb, 100 ppb and 1 ppm. During 14 days of incubation, no effects by Heptafluorobutyric acid (HFBA) and Perfluorooctanoic acid (PFOA) on the overall bacterial numbers were detected for these concentrations. However, the biomass growth was inhibited when the concentration of 2,2,2-Trifluoroethyl Nonafluorobutanesulfonate was 1 ppm in the incubation with the pure culture.

Molecules are shown by their SMILES. “Also recorded” adds a separate entry of the source.

As for `O=C(O)C(F)(F)C(F)(F)C(F)(F)F` [HFBA, Heptafluorobutyric acid], the “toxicity / effects on the overall bacterial numbers” value was “no toxicity; also recorded: no effects”.

For `O=S(=O)(OCC(F)(F)F)C(F)(F)C(F)(F)C(F)(F)C(F)(F)F` [PFBS, 2,2,2-Trifluoroethyl Nonafluorobutanesulfonate], the biomass growth entry was “slightly inhibited”. Where the note is “listed as 2,2,2-Trifluoroethyl Nonafluorobutanesulfonate”, the biomass growth result is on record as “inhibited”.

With `O=C(O)C(F)(F)C(F)(F)C(F)(F)C(F)(F)C(F)(F)C(F)(F)C(F)(F)F` [PFOA, Perfluorooctanoic acid], the “toxicity / effects on the overall bacterial numbers” value is “no toxicity; also recorded: no effects”.
